US20090155387A1, “STABLE PHARMACEUTICAL COMPOSITION COMPRISING BETA-LACTAM ANTIBIOTIC AND ION-CHELATING AGENT” (priority 2006, published 2009)

Test: Amounts of β-lactam antibiotic, β-lactamase inhibitor and aminoglycoside antibiotic in solution over time (reverse-phase LC/HPLC)
Type: physicochemical
Experimental: The amounts of β-lactam antibiotics and β-lactamase inhibitor were determined using C18 reverse-phase LC and UV-VIS detector (Tianjin […] Co., Ltd., analysis method No. HM-K-03). The content of aminoglycoside antibiotics was measured using reverse-phase HPLC and evaporation-light-scattering detector (ELSD detector) (Tianjin […] Co., Ltd., analysis method No. HM-K-08). The amount of antibiotic component at each time point was expressed as a percentage with respect to the amount at the initial time. The relative amount of each antibiotic component in the composition at each time point was expressed as peak area ratio with respect to the corresponding peak area of an external standard.

[1] = in Example 19 solution, pH 6.75, room temperature, 0 h
[2] = in Example 19 solution, pH 6.75, room temperature, 1 h
[3] = in Example 19 solution, pH 6.75, room temperature, 2 h
[4] = in Example 19 solution, pH 6.75, room temperature, 4 h
[5] = in Example 19 solution, pH 6.75, room temperature, 6 h
[6] = in Example 19 solution, pH 6.75, room temperature, 8 h
[7] = in Example 20 solution (no EDTA), pH 6.75, room temperature, 0 h
[8] = in Example 20 solution (no EDTA), pH 6.75, room temperature, 1 h
[9] = in Example 20 solution (no EDTA), pH 6.75, room temperature, 2 h
[10] = in Example 20 solution (no EDTA), pH 6.75, room temperature, 4 h
[11] = in Example 20 solution (no EDTA), pH 6.75, room temperature, 6 h
[12] = in Example 20 solution (no EDTA), pH 6.75, room temperature, 8 h

NCC[C@H](O)C(=O)N[C@@H]1C[C@H](N)[C@@H](O[C@H]2O[C@H](CN)[C@@H](O)[C@H](O)[C@H]2O)[C@H](O)[C@H]1O[C@H]1O[C@H](CO)[C@@H](O)[C@H](N)[C@H]1O [Amikacin]
amount (percentage of initial amount) [1]: 99.91%
amount (percentage of initial amount) [2]: 99.50%
amount (percentage of initial amount) [3]: 98.88%
amount (percentage of initial amount) [4]: 99.45%
amount (percentage of initial amount) [5]: 98.56%
amount (percentage of initial amount) [6]: 99.36%
amount (percentage of initial amount) [7]: 95.98%
amount (percentage of initial amount) [8]: 91.49%
amount (percentage of initial amount) [9]: 85.05%
amount (percentage of initial amount) [10]: 91.00%
amount (percentage of initial amount) [11]: 81.93%
amount (percentage of initial amount) [12]: 89.98%

CC1(C)S[C@@H]2[C@H](NC(=O)[C@H](NC(=O)N3CCNC3=O)c3ccccc3)C(=O)N2[C@H]1C(=O)O [Azlocillin sodium]
amount (percentage of initial amount) (in Example 22 solution (2.5% fructose), pH 6.0, room temperature, 0 h): 92.40%
amount (percentage of initial amount) (in Example 22 solution (2.5% fructose), pH 6.0, room temperature, 1 h): 98.91%
amount (percentage of initial amount) (in Example 22 solution (2.5% fructose), pH 6.0, room temperature, 2 h): 104.0%
amount (percentage of initial amount) (in Example 22 solution (2.5% fructose), pH 6.0, room temperature, 4 h): 98.91%
amount (percentage of initial amount) (in Example 22 solution (2.5% fructose), pH 6.0, room temperature, 6 h): 99.03%
amount (percentage of initial amount) (in Example 22 solution (2.5% fructose), pH 6.0, room temperature, 8 h): 85.02%

CO/N=C(\C(=O)N[C@@H]1C(=O)N2C(C(=O)O)=C(CSc3nc(C)c(CC(=O)O)s3)CS[C@H]12)c1csc(N)n1 [Cefodizime sodium]
amount (percentage of initial amount) (in Example 10 solution, pH 6.5, room temperature, 0 h): 92.06%
amount (percentage of initial amount) (in Example 10 solution, pH 6.5, room temperature, 1 h): 99.84%
amount (percentage of initial amount) (in Example 10 solution, pH 6.5, room temperature, 2 h): 99.73%
amount (percentage of initial amount) (in Example 10 solution, pH 6.5, room temperature, 4 h): 98.64%
amount (percentage of initial amount) (in Example 10 solution, pH 6.5, room temperature, 6 h): 94.27%
amount (percentage of initial amount) (in Example 10 solution, pH 6.5, room temperature, 8 h): 96.48%
amount (percentage of initial amount) (in Example 25 solution, pH 6.75, room temperature, 0 h): 100.9%
amount (percentage of initial amount) (in Example 25 solution, pH 6.75, room temperature, 1 h): 104.6%
amount (percentage of initial amount) (in Example 25 solution, pH 6.75, room temperature, 2 h): 100.1%
amount (percentage of initial amount) (in Example 25 solution, pH 6.75, room temperature, 4 h): 81.34%
amount (percentage of initial amount) (in Example 25 solution, pH 6.75, room temperature, 6 h): 103.7%
amount (percentage of initial amount) (in Example 25 solution, pH 6.75, room temperature, 8 h): 102.2%

CCN1CCN(C(=O)N[C@@H](C(=O)N[C@@H]2C(=O)N3C(C(=O)O)=C(CSc4nnnn4C)CS[C@H]23)c2ccc(O)cc2)C(=O)C1=O [Cefoperazone sodium]
amount (percentage of initial amount) (in Example 4 solution (no EDTA), pH 6.75, room temperature, 0 h): 101.4%
amount (percentage of initial amount) (in Example 4 solution (no EDTA), pH 6.75, room temperature, 1 h): 98.66%
amount (percentage of initial amount) (in Example 4 solution (no EDTA), pH 6.75, room temperature, 2 h): 98.79%
amount (percentage of initial amount) (in Example 4 solution (no EDTA), pH 6.75, room temperature, 4 h): 101.5%
amount (percentage of initial amount) (in Example 4 solution (no EDTA), pH 6.75, room temperature, 6 h): 107.4%
amount (percentage of initial amount) (in Example 5 solution, pH 6.75, room temperature, 0 h): 101.4%
amount (percentage of initial amount) (in Example 5 solution, pH 6.75, room temperature, 1 h): 98.66%
amount (percentage of initial amount) (in Example 5 solution, pH 6.75, room temperature, 2 h): 98.79%
amount (percentage of initial amount) (in Example 5 solution, pH 6.75, room temperature, 4 h): 101.5%
amount (percentage of initial amount) (in Example 5 solution, pH 6.75, room temperature, 6 h): 107.4%
amount (percentage of initial amount) (in Example 6 solution, pH 6.5, room temperature, 0 h): 110.4%
amount (percentage of initial amount) (in Example 6 solution, pH 6.5, room temperature, 1 h): 99.48%
amount (percentage of initial amount) (in Example 6 solution, pH 6.5, room temperature, 2 h): 101.3%
amount (percentage of initial amount) (in Example 6 solution, pH 6.5, room temperature, 4 h): 98.66%
amount (percentage of initial amount) (in Example 6 solution, pH 6.5, room temperature, 6 h): 98.02%
amount (percentage of initial amount) (in Example 6 solution, pH 6.5, room temperature, 8 h): 99.30%
amount (percentage of initial amount) (in Example 12 solution (no aminoglycoside) from freeze-dried powder stored 7 days at 0° C., redissolved, 0 h): 100.2%
amount (percentage of initial amount) (in Example 12 solution (no aminoglycoside) from freeze-dried powder stored 7 days at 0° C., redissolved, 1 h): 99.0%
amount (percentage of initial amount) (in Example 12 solution (no aminoglycoside) from freeze-dried powder stored 7 days at 0° C., redissolved, 2 h): 99.0%
amount (percentage of initial amount) (in Example 12 solution (no aminoglycoside) from freeze-dried powder stored 7 days at 0° C., redissolved, 4 h): 96.2%
amount (percentage of initial amount) (in Example 12 solution (no aminoglycoside) from freeze-dried powder stored 7 days at 0° C., redissolved, 6 h): 94.5%
amount (percentage of initial amount) (in Example 12 solution (no aminoglycoside) from freeze-dried powder stored 7 days at 0° C., redissolved, 8 h): 95.3%
amount (percentage of initial amount) (in Example 13 solution (Example 12 solution + etimicin sulfate), 0 h): 100.2%
amount (percentage of initial amount) (in Example 13 solution (Example 12 solution + etimicin sulfate), 1 h): 99.0%
amount (percentage of initial amount) (in Example 13 solution (Example 12 solution + etimicin sulfate), 2 h): 99.0%
amount (percentage of initial amount) (in Example 13 solution (Example 12 solution + etimicin sulfate), 4 h): 96.2%
amount (percentage of initial amount) (in Example 13 solution (Example 12 solution + etimicin sulfate), 6 h): 94.5%
amount (percentage of initial amount) (in Example 13 solution (Example 12 solution + etimicin sulfate), 8 h): 95.3%
amount (percentage of initial amount) (in Example 14 solution, pH 6.5, room temperature, 0 h): 98.42%
amount (percentage of initial amount) (in Example 14 solution, pH 6.5, room temperature, 1 h): 97.39%
amount (percentage of initial amount) (in Example 14 solution, pH 6.5, room temperature, 2 h): 97.46%
amount (percentage of initial amount) (in Example 14 solution, pH 6.5, room temperature, 4 h): 94.70%
amount (percentage of initial amount) (in Example 14 solution, pH 6.5, room temperature, 6 h): 93.02%
amount (percentage of initial amount) (in Example 15 solution, pH 6.5, room temperature, 0 h): 101.7%
amount (percentage of initial amount) (in Example 15 solution, pH 6.5, room temperature, 1 h): 96.06%
amount (percentage of initial amount) (in Example 15 solution, pH 6.5, room temperature, 2 h): 95.72%
amount (percentage of initial amount) (in Example 15 solution, pH 6.5, room temperature, 4 h): 97.32%
amount (percentage of initial amount) (in Example 15 solution, pH 6.5, room temperature, 6 h): 69.95%
amount (percentage of initial amount) (in Example 16 solution, pH 6.5, room temperature, 0 h): 102.9%
amount (percentage of initial amount) (in Example 16 solution, pH 6.5, room temperature, 1 h): 108.6%
amount (percentage of initial amount) (in Example 16 solution, pH 6.5, room temperature, 2 h): 104.6%
amount (percentage of initial amount) (in Example 16 solution, pH 6.5, room temperature, 4 h): 99.50%
amount (percentage of initial amount) (in Example 16 solution, pH 6.5, room temperature, 6 h): 98.91%
amount (percentage of initial amount) (in Example 16 solution, pH 6.5, room temperature, 8 h): 103.4%
amount (percentage of initial amount) [1]: 95.91%
amount (percentage of initial amount) [2]: 97.01%
amount (percentage of initial amount) [3]: 95.94%
amount (percentage of initial amount) [4]: 95.86%
amount (percentage of initial amount) [5]: 95.41%
amount (percentage of initial amount) [6]: 95.22%
amount (percentage of initial amount) [7]: 92.30%
amount (percentage of initial amount) [8]: 94.80%
amount (percentage of initial amount) [9]: 94.06%
amount (percentage of initial amount) [10]: 94.12%
amount (percentage of initial amount) [11]: 93.15%
amount (percentage of initial amount) [12]: 94.50%
amount (percentage of initial amount) (in Example 21 solution, pH 6.75, room temperature (22° C.), 0 h): 92.44%
amount (percentage of initial amount) (in Example 21 solution, pH 6.75, room temperature (22° C.), 1 h): 104.6%
amount (percentage of initial amount) (in Example 21 solution, pH 6.75, room temperature (22° C.), 2 h): 102.4%
amount (percentage of initial amount) (in Example 21 solution, pH 6.75, room temperature (22° C.), 4 h): 97.95%
amount (percentage of initial amount) (in Example 21 solution, pH 6.75, room temperature (22° C.), 6 h): 98.90%
amount (percentage of initial amount) (in Example 21 solution, pH 6.75, room temperature (22° C.), 8 h): 102.9%
